Measured values published in patent US10765690B2, “TLR4 agonists and compositions thereof and their use in the treatment of cancer” (GlaxoSmithKline Intellectual Property Development Limited, priority 2015, dated 2020).
“And” between values parts separate entries of the source, which are not always exact repeats. Identical values can stand only once.

Key:
[1] = test system: CT-26 cells; assay: CT-26 two-flank model, abscopal effect (study 4); format: in vivo, mice
Description: The in vivo anti-tumor efficacy of the TLR4 agonist (CRX-601) was assessed in the murine CT-26 colon carcinoma syngeneic solid tumor model as a monotherapy and in combination with […] a therapeutic antibody (combination data not shown). Seven to eight week old female Balb/c mice (BALB/cAnNCrl, Charles River) were used in these studies. Murine CT-26 colon carcinoma cells (ATCC catalog number CRL-2638 lot #59227052) were cultured in RPMI growth medium supplemented with 10% fetal bovine serum (FBS) in a humidified 37° C. incubator with 5% CO2, CT-26 cells cultured in logarithmic growth were harvested from tissue culture flasks and centrifuged for 5 minutes at 450×g at 4° C. for ten minutes to pellet cells. The supernatant was discarded, and cells were washed in ice cold phosphate buffered saline (PBS) without calcium and magnesium and centrifuged again for 5 minutes at 450×g at 4° C. for ten minutes to pellet cells. […] Tumor volume was calculated using the formula (0.52)×(Length)×(Width^2). In study 3, tumor-free mice were re-challenged with CT-26 tumor cells as described above, on the opposite flank from the original inoculation site and tumor growth was monitored, as described above. […]
An abscopal effect is described as distant tumor regression after a local tumor treatment. […] Tumor size was monitored for both the right and left flank tumors. […]

[2] = test system: Murine CT-26 colon carcinoma cells; assay: CT-26 syngeneic colon carcinoma model, intratumoral or intravenous monotherapy (Example 10, studies 1-3); format: in vivo, Balb/c mice
Description: The in vivo anti-tumor efficacy of the TLR4 agonist (CRX-601) was assessed in the murine CT-26 colon carcinoma syngeneic solid tumor model as a monotherapy and in combination with […] a therapeutic antibody (combination data not shown). Seven to eight week old female Balb/c mice (BALB/cAnNCrl, Charles River) were used in these studies. Murine CT-26 colon carcinoma cells (ATCC catalog number CRL-2638 lot #59227052) were cultured in RPMI growth medium supplemented with 10% fetal bovine serum (FBS) in a humidified 37° C. incubator with 5% CO2, CT-26 cells cultured in logarithmic growth were harvested from tissue culture flasks and centrifuged for 5 minutes at 450×g at 4° C. for ten minutes to pellet cells. The supernatant was discarded, and cells were washed in ice cold phosphate buffered saline (PBS) without calcium and magnesium and centrifuged again for 5 minutes at 450×g at 4° C. for ten minutes to pellet cells. The cells were resuspended in sterile RPMI media without FBS and adjusted to a cell concentration of 500,000 cells/ml, 100 μl of the cell stock was implanted via subcutaneous injection into the right flank of each Balb/c mouse. After ten or eleven days when the average tumor size reached approximately 100 mm^3, mice were randomized into study cohorts according to tumor size and the first treatment dose was given. The TLR4 agonist (CRX-601) or vehicle was dosed via a systemic intravenous or direct intratumoral injection as indicated. The CRX-601 vehicle used for intravenous and intratumoral dosing was […] where indicated. For CRX-601 liposomal intratumoral dosing, a DOPC/CHOL liposome prepared by GSK Lot #1783-157-B was used. The therapeutic antibody was dosed via an intraperitoneal injection given twice per week for a total of six doses. Caliper measurements were taken three times per week to assess tumor growth, and mice with tumors <2,000 mm^3 were maintained on study from 30 up to approximately 115 days. Mice with tumors >2,000 mm^3 for 2 consecutive measurements or mice with tumors which formed open ulcers were removed from the study. Tumor volume was calculated using the formula (0.52)×(Length)×(Width^2). In study 3, tumor-free mice were re-challenged with CT-26 tumor cells as described above, on the opposite flank from the original inoculation site and tumor growth was monitored, as described above. All studies were conducted in accordance with the GSK Policy on the Care, Welfare and Treatment of Laboratory Animals and were reviewed by the Institutional Animal Care and Use Committee at GSK.
For studies 1 and 2, to determine significance of tumor growth inhibition, tumor volumes at 11 study 1) or 15 (study 2) days after first dose were compared between the different treatment groups. Prior to the analysis, tumor volumes were natural log transformed due to the inequality of variance in the different treatment groups. ANOVA followed by pair-wise comparison was then carried out on the log transformed data. SAS 9.3 and R 3.0.2 analysis software was used. Kaplan-Meier (KM) method was carried out to estimate the survival probability of different treatment groups at a given time. The event for survival analysis was tumor volume of 2000 mm^3 or tumor ulceration, whichever came first. The exact time to cut-off volume was estimated by fitting a linear line between log tumor volume and day of two observations, the first observation that exceed the cut-off volume and the one observation that immediately preceded the cut-off volume. The median time to endpoint and its corresponding 95% confidence interval was calculated. Whether or not KM survival curves were statistically different between any two groups was then tested by log-rank test. The raw p-value, as well as the false discovery rate (FDR) adjusted p-values, from the comparisons of days to events by survival analysis and the comparisons of log transformed tumor volume at indicated days between treatment groups was determined. […]

[3] = test system: CT-26 colorectal tumor cells; assay: CT-26 syngeneic colon carcinoma model, escalating i.p. doses (Example 9); format: in vivo, Balb/c mice; conditions: CRX-601, similar experiment; 4, 20 or 100 ug

`CCCCCCCCCCC[C@H](CC(=O)N[C@H]1[C@H](OC[C@H](NC(=O)C[C@@H](CCCCCCCCCCC)OCCCCCCCCCC)C(=O)O)O[C@H](CO)[C@@H](OP(=O)(O)O)[C@@H]1OC(=O)C[C@@H](CCCCCCCCCCC)OCCCCCCCCCC)OCCCCCCCCCC` [CRX-601] was tested, and the “survival benefit compared to the control group” value ([1]; study 4, liposomal CRX-601 IT 25 ug/mouse, vs blank liposome + rat IgG1, p=0.011) was “significant survival benefit”, the “abscopal effect on untreated distant tumor” value ([1]; study 4 group 2, left flank tumor IT injection, liposomal 25 ug/mouse, right flank tumor untreated, mouse #4 and #6) was “distant right flank tumor regression” and the “tumor status of single mouse remaining on study” value ([2]; study 1, 10 ug intratumoral group, day 42) was “tumor-free”. For the same compound, the “tumor growth inhibition compared to vehicle” value ([2]; study 1, 10 ug/mouse intratumoral twice per week, 6 doses, 11 days after the initial dose, p-values 0.05) was “statistically significant”, the “tumor-free mice among mice remaining on study” value ([2]; study 1, 50 ug intratumoral group, day 42) was “Three of the four” and the “tumor volume of remaining tumor-bearing mouse” value ([2]; study 1, 50 ug intratumoral group, fourth mouse, day 42) was 854.19 mm^3. For the same compound, the “increase in survival compared to vehicle” value ([2]; study 1, 50 ug intratumoral single dose, by day 42 post CT26 inoculation, p-values<=0.05) was “statistically significant”, the “tumor growth inhibition compared to vehicle” value ([2]; study 1, 50 ug/mouse intratumoral single dose, 11 days after the initial dose, p-values 0.05) was “statistically significant” and the “anti-tumor activity (tumor growth inhibition over time)” value ([2]; study 1, intratumoral dosing 0.1, 1, 10 ug/mouse twice per week x6 or 50 ug single dose) was “dose-dependent anti-tumor activity”. For the same compound, the “tumor volume of single mouse remaining on study” value ([2]; study 2, 10 ug intravenous group, day 32) was 188.0 mm^3, the “tumor growth inhibition compared to vehicle” value ([2]; study 2, 10 ug/mouse intravenous twice per week, 6 doses, 15 days after the initial dose, p-values<=0.05) was “statistically significant” and the “tumor-free mice among mice remaining on study” value ([2]; study 2, 100 ug intravenous group, day 32) was “One of the three”. The “tumor volumes of remaining tumor-bearing mice” value ([2]; study 2, 100 ug intravenous group, day 32, individual mice) was 1500.49 mm^3 and 962.61 mm^3, the “increase in survival compared to vehicle” value ([2]; study 2, 100 ug intravenous single dose, day 32 post CT-26 inoculation, p-values<=0.05) was “statistically significant increase” and the “tumor growth inhibition compared to vehicle” value ([2]; study 2, 100 ug/mouse intravenous single dose, 15 days after the initial dose, p-values<=0.05) was “statistically significant”. For the same compound, the “anti-tumor activity (tumor growth inhibition over time)” value ([2]; study 2, intravenous dosing 1, 10 ug/mouse twice per week x6 or 100 ug single dose) was “dose-dependent anti-tumor activity”, the “CT26 tumor growth on re-challenge” value ([2]; study 3, fully regressed tumor-free mice re-challenged on day 80, opposite flank, vs naive control mice) was “rejected with no tumor growth” and the “mice showing full tumor regressions” value ([2]; study 3 Group 2, 25 ug/mouse IV once per week x3) was 5 out of 10. The “increase in survival compared to control Group 1” value ([2]; study 3 Group 2, 25 ug/mouse IV once per week x3, 80 days after the first dose, p-values<=0.05) was “statistically significant”, the “tumor growth inhibition compared to control Group 1” value ([2]; study 3 Group 2, 25 ug/mouse intravenous in 0.5% Glycerol/4% dextrose once per week x3 (+Rat IgG1), 12 days after the initial dose, p-values<=0.05) was “statistically significant” and the “increase in survival compared to control Group 5” value ([2]; study 3 Group 7, 25 ug/mouse intratumoral DOPC/CHOL liposome once per week x3, 80 days after the first dose, p-values<=0.05) was “statistically significant”. The “tumor growth inhibition compared to control Group 5” value ([2]; study 3 Group 7, 25 ug/mouse intratumoral in DOPC/CHOL liposome once per week x3 (+Rat IgG1), 12 days after the initial dose, p-values<=0.05) was “statistically significant” and the tumor growth [3] was “inhibited tumor growth”.
